From patent EP4818179A1, “PREPARATION FOR AND USE OF PYRIMIDO-THIOPYRANDIONE INHIBITOR FOR KRAS G12C MUTANT PROTEIN” (Ya Therapeutics Inc, priority 2024, dated 2025)
pIC50: −log10 of the molar value.

test system: H358 (KRAS G12C mutant) cells; assay: Tumor cell proliferation inhibition experiment (Cell Titer-Glo luminescent cell viability assay); settings: Homo sapiens, NCI-H358, 72 h, read-out: NCI-H538 IC50(nm)
Description: H358 (KRAS G12C mutant) cells were digested, centrifuged, and resuspended. Cell density was determined using a Scepter automated cell counter. The cells were diluted to a solution containing 44,000 cells per milliliter. The adjusted cell solution was added to 90 µL per well in a 96-well culture plate. The 96-well plate was placed in a 37°C, 5% CO2 incubator. After culturing the cells for 24 hours, different concentrations of the test compound were added. The cells were then cultured with the compound for 72 hours in the presence of 10% fetal bovine serum. The ATP content was measured using the Cell Titer-Glo luminescent cell viability assay kit (see manufacturer's instructions for details) to assess cell growth inhibition. In short, 30 µL of Cell Titer-Glo reagent was added to each well, and the plate was shaken for 10 minutes to induce cell lysis. The fluorescence signal was detected and recorded using a Fluoroskan Ascent FL (Thermo). The maximum signal value was obtained from cells treated with dimethyl sulfoxide for 72 hours. Minimum signal value was obtained from a single culture medium (zero cell count). Inhibition rate % = (maximum signal value - minimum signal value) / (maximum signal value - minimum signal value × 100%). Data was processed using GraphPadprism 5 software. IC50 values were calculated by fitting an S-shaped dose-response curve.

**Q.** `C=CC(=O)N1CCN(c2nc(OC[C@@]34CCCN3C[C@H](F)C4)nc3c2CS(=O)(=O)C(c2nc(N)cc(C)c2C(F)(F)F)C3)C[C@@H]1CC#N` (stereo partly drawn) [Compound 7, 2-((2S)-4-(7-(6-amino-4-methyl-3-(trifluoromethyl)pyridin-2-yl)-2-(((2R,7AS)-2-fluorotetrahydro-1H-pyrrolazin-7a(5H)-yl)methoxy)-6,6-dioxo-7,8-dihydro-5H-thiaran[4,3-d]pyrimidin-4-yl)-1-(acryloyl)pyrazin-2-yl)acetonitrile] was tested. Which pIC50 did it give?
**A.** > 8.00

**Q.** How did the pIC50 turn out when `C=CC(=O)N1CCN(c2nc(OC[C@@]34CCCN3C[C@H](F)C4)nc3c2CS(=O)(=O)[C@H](c2nc(N)cc(C)c2C(F)(F)F)C3)C[C@@H]1CC#N` [Compound 7A, 2-((2S)-4-((7S)-7-(6-amino-4-methyl-3-(trifluoromethyl)pyridin-2-yl)-2-(((2R,7AS)-2-fluorotetrahydro-1H-pyrrolazin-7a(5H)-yl)methoxy)-6,6-dioxo-7,8-dihydro-5H-thiaran[4,3-d]pyrimidin-4-yl)-1-(acryloyl)pyrazin-2-yl)acetonitrile] was run?
**A.** > 8.00

**Q.** With `C=CC(=O)N1CCN(c2nc(OC[C@@]34CCCN3C[C@H](F)C4)nc3c2CS(=O)(=O)[C@@H](c2nc(N)cc(C)c2C(F)(F)F)C3)C[C@@H]1CC#N` [Compound 7B, 2-((2S)-4-((7R)-7-(6-amino-4-methyl-3-(trifluoromethyl)pyridin-2-yl)-2-(((2R,7AS)-2-fluorotetrahydro-1H-pyrrolazin-7a(5H)-yl)methoxy)-6,6-dioxo-7,8-dihydro-5H-thiaran[4,3-d]pyrimidin-4-yl)-1-(acryloyl)pyrazin-2-yl)acetonitrile] as the compound, how does the pIC50 read?
**A.** > 8.00

**Q.** `C=C(F)C(=O)N1CCN(c2nc(OC[C@@]34CCCN3C[C@H](F)C4)nc3c2CS(=O)(=O)C(c2nc(N)cc(C)c2C(F)(F)F)C3)C[C@@H]1CC#N` (stereo partly drawn) [Compound 8, 2-((2S)-4-(7-(6-amino-4-methyl-3-(trifluoromethyl)pyridin-2-yl)-2-(((2R,7AS)-2-fluorotetrahydro-1H-pyrrolazin-7a(5H)-yl)methoxy)-6,6-dioxo-7,8-dihydro-5H-thiaran[4,3-d]pyrimidin-4-yl)-1-(2-fluoroacryloyl)pyrazin-2-yl)acetonitrile] was tested. Which pIC50 did it give?
**A.** > 8.00

**Q.** With `C=C(F)C(=O)N1CCN(c2nc(OC[C@@]34CCCN3C[C@H](F)C4)nc3c2CS(=O)(=O)[C@H](c2nc(N)cc(C)c2C(F)(F)F)C3)C[C@@H]1CC#N` [Compound 8A, 2-((2S)-4-((7S)-7-(6-amino-4-methyl-3-(trifluoromethyl)pyridin-2-yl)-2-(((2R,7AS)-2-fluorotetrahydro-1H-pyrrolazin-7a(5H)-yl)methoxy)-6,6-dioxo-7,8-dihydro-5H-thiaran[4,3-d]pyrimidin-4-yl)-1-(2-fluoroacryloyl)pyrazin-2-yl)acetonitrile] as the compound, how does the pIC50 read?
**A.** > 8.00

**Q.** How did the pIC50 turn out when `C=C(F)C(=O)N1CCN(c2nc(OC[C@@]34CCCN3C[C@H](F)C4)nc3c2CS(=O)(=O)[C@@H](c2nc(N)cc(C)c2C(F)(F)F)C3)C[C@@H]1CC#N` [Compound 8B, 2-((2S)-4-((7R)-7-(6-amino-4-methyl-3-(trifluoromethyl)pyridin-2-yl)-2-(((2R,7AS)-2-fluorotetrahydro-1H-pyrrolazin-7a(5H)-yl)methoxy)-6,6-dioxo-7,8-dihydro-5H-thiaran[4,3-d]pyrimidin-4-yl)-1-(2-fluoroacryloyl)pyrazin-2-yl)acetonitrile] was run?
**A.** > 8.00
